Assay results: PMC7944402, “Resin-acid derivatives bind to multiple sites on the voltage-sensor domain of the Shaker potassium channel” (The Journal of General Physiology, 2021)
“And” between values parts separate entries of the source, which are not always exact repeats. Equal values may be shown once.

Assays:
Type in all cases: cell-based
[1] = molecular target: T1, Shaker KV channel R362Q/R365Q/W454A/F280I (Drosophila melanogaster, UniProt P08510, DEL6-46/F280I/R362Q/R365Q/W454A); assay: Two-electrode voltage clamp in Xenopus oocytes: R362Q/R365Q/W454A/F280I; conditions: 100 μM, pH 9.0, R362Q/R365Q/W454A/F280I
T1 construct: expressed in transfected cells; host or cells: Xenopus laevis oocytes (RNA injection)
T1 sequence (P08510 other isoform, or with tags, fused parts or gaps DEL6-46/F280I/R362Q/R365Q/W454A): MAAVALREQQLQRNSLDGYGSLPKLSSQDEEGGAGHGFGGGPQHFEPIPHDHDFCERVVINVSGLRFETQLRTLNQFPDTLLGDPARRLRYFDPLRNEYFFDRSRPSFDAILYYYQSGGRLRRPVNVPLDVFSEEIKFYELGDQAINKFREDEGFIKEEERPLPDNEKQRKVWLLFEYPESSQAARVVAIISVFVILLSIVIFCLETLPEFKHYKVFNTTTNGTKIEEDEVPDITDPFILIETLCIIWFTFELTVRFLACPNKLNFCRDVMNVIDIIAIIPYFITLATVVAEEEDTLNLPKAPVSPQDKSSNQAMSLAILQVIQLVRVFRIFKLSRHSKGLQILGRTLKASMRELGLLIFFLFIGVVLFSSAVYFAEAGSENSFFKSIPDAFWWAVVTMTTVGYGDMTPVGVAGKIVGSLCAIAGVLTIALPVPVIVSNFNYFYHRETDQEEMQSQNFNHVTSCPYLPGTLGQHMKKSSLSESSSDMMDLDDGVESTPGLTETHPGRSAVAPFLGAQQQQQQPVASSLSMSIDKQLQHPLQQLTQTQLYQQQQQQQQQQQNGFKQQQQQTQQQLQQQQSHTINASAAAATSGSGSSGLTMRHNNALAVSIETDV
Excerpt: (§1) The Shaker H4 channel (GenBank accession no. NM_167595.3; [Kamb et al., 1987]), with removed N-type inactivation due to a Δ6-46 deletion (ShH4IR, in Bluescript II KS(+) plasmid; [Hoshi et al., 1990]), is referred to as the WT Shaker KV channel. Addition of two positively charged arginines (M356R/A359R) at the extracellular top of the voltage sensor increases the effect of charged lipophilic compounds ([Ottosson et al., 2014], [2015], [2017]). […] However, for the resin-acid derivatives studied in the present investigation, R362 reduced the effect. Therefore, we specifically refer to the two added arginines just outside S4 (M356R/A359R) as the 2R motif. […]
(§2) Electrophysiological experiments were made 1–6 d after RNA injection. K^+ currents were measured with the two-electrode voltage-clamp technique (GeneClamp 500B amplifier; Axon Instruments) as described previously ([Ottosson et al., 2015]; [Silverå Ejneby et al., 2018]). […]
(§3) The conductance, G(V), was calculated as G(V)=I/(V−VK), (1) where I is the steady-state current measured at the end of each test-voltage sweep (100 ms after onset; Clampfit 10.5; Molecular Devices), V is the absolute membrane voltage, and VK is the reversal potential for K^+ ions (set to −80 mV). […] The resin-acid–induced G(V) shift was calculated as V1/2 (compound) − V1/2 (control). The relative change in GMAX was calculated as GMAX (compound) / GMAX (control). […]

[2] = molecular target: T2, Shaker KV channel M356R/A359R/R362Q/W454A (Drosophila melanogaster, UniProt P08510, A359R/DEL6-46/M356R/R362Q/W454A); assay: Two-electrode voltage clamp in Xenopus oocytes: 2R motif/R362Q/W454A; conditions: 100 μM, pH 9.0, M356R/A359R/R362Q/W454A
T2 construct: expressed in transfected cells; host or cells: Xenopus laevis oocytes (RNA injection)
T2 sequence (P08510 with tags, fused parts or gaps DEL6-46/M356R/A359R/R362Q/W454A): as the sequence (P08510 other isoform, or with tags, fused parts or gaps DEL6-46/F280I/R362Q/R365Q/W454A) above, with I239F, M315R, A318R, Q324R counted along it
Excerpt: as §1, §2, §3

[3] = molecular target: T3, WT Shaker KV channel (ShH4IR) (Drosophila melanogaster, UniProt P08510, DEL6-46); assay: Two-electrode voltage clamp of Shaker KV channels expressed in Xenopus laevis oocytes: WT
T3 construct: expressed in transfected cells; host or cells: Xenopus laevis oocytes (RNA injection)
T3 sequence (P08510 other isoform, or with tags, fused parts or gaps DEL6-46): as the sequence (P08510 other isoform, or with tags, fused parts or gaps DEL6-46/F280I/R362Q/R365Q/W454A) above, with I239F, Q321R, Q324R, A413W counted along it
Excerpt: (§4) The Shaker H4 channel (GenBank accession no. NM_167595.3; [Kamb et al., 1987]), with removed N-type inactivation due to a Δ6-46 deletion (ShH4IR, in Bluescript II KS(+) plasmid; [Hoshi et al., 1990]), is referred to as the WT Shaker KV channel. […] Therefore, we specifically refer to the two added arginines just outside S4 (M356R/A359R) as the 2R motif. Mutations were introduced with site-directed mutagenesis and verified with sequencing as described previously ([Börjesson et al., 2010]). RNA injection and oocyte handling were performed as before ([Börjesson et al., 2010]; [Ottosson et al., 2015]). All animal experiments were approved by the Linköping’s local Animal Care and Use Committee.
(§5) Electrophysiological experiments were made 1–6 d after RNA injection. K^+ currents were measured with the two-electrode voltage-clamp technique (GeneClamp 500B amplifier; Axon Instruments) as described previously ([Ottosson et al., 2015]; [Silverå Ejneby et al., 2018]). The amplifier’s leak compensation was used, and the currents were low-pass filtered at 5 kHz. The control solution contained (in mM) 88 NaCl, 1 KCl, 15 HEPES, 0.4 CaCl2, and 0.8 MgCl2, and pH was set with NaOH. All experiments were made at room temperature (20°C–23°C). The holding potential was set to −80 mV (or −100 mV if the mutant was not fully closed at −80 mV).
(§6) Stock solutions were stored at −20°C and diluted in control solution just before experiments. The test solution was added to the oocyte bath manually with a syringe. […] To make sure all Wu50 molecules were negatively charged, the pH of the control solution was set to 9.0 before the experiments.
(§7) The conductance, G(V), was calculated as G(V)=I/(V−VK), (1) where I is the steady-state current measured at the end of each test-voltage sweep (100 ms after onset; Clampfit 10.5; Molecular Devices), V is the absolute membrane voltage, and VK is the reversal potential for K^+ ions (set to −80 mV). The conductance was fitted with a Boltzmann equation (GraphPad Prism 5; GraphPad Software, Inc.) GK(V)=GMAX/{1+exp[(V½−V)/s]}, (2) where GMAX is the amplitude (maximal conductance) of the curve, V is the absolute membrane voltage, V1/2 is the midpoint, and s is the slope. The resin-acid–induced G(V) shift was calculated as V1/2 (compound) − V1/2 (control). The relative change in GMAX was calculated as GMAX (compound) / GMAX (control). The concentration dependence for the G(V) shifts was calculated as ΔV= ΔVMAX/(1 +EC50/c), (3) where ΔV is the voltage shift, ΔVMAX is the voltage shift at saturating concentration, c is the concentration of the tested compound, and EC50 is the concentration at which half-maximum response occurs.

[4] = molecular target: T4, Shaker KV channel R362Q (Drosophila melanogaster, UniProt P08510, DEL6-46/R362Q); assay: Two-electrode voltage clamp in Xenopus oocytes: R362Q; conditions: 100 μM, pH 9.0, R362Q
T4 construct: expressed in transfected cells; host or cells: Xenopus laevis oocytes (RNA injection)
T4 sequence (P08510 other isoform, or with tags, fused parts or gaps DEL6-46/R362Q): as the sequence (P08510 other isoform, or with tags, fused parts or gaps DEL6-46/F280I/R362Q/R365Q/W454A) above, with I239F, Q324R, A413W counted along it
Excerpt: (§8) The Shaker H4 channel (GenBank accession no. NM_167595.3; [Kamb et al., 1987]), with removed N-type inactivation due to a Δ6-46 deletion (ShH4IR, in Bluescript II KS(+) plasmid; [Hoshi et al., 1990]), is referred to as the WT Shaker KV channel. Addition of two positively charged arginines (M356R/A359R) at the extracellular top of the voltage sensor increases the effect of charged lipophilic compounds ([Ottosson et al., 2014], [2015], [2017]). […] However, for the resin-acid derivatives studied in the present investigation, R362 reduced the effect. Therefore, we specifically refer to the two added arginines just outside S4 (M356R/A359R) as the 2R motif. Mutations were introduced with site-directed mutagenesis and verified with sequencing as described previously ([Börjesson et al., 2010]). RNA injection and oocyte handling were performed as before ([Börjesson et al., 2010]; [Ottosson et al., 2015]). All animal experiments were approved by the Linköping’s local Animal Care and Use Committee.
as §2
as §7, with “The conductance was fitted with a Boltzmann equation (GraphPad Prism 5; GraphPad Software, Inc.) GK(V)=GMAX/{1+exp[(V½−V)/s]}, (2) where GMAX is the amplitude (maximal conductance) of the curve, V is the absolute membrane voltage, V1/2 is the midpoint, and s is the slope.” left out

[5] = molecular target: T5, Shaker KV channel with the 2R motif (M356R/A359R) (Drosophila melanogaster, UniProt P08510, A359R/DEL6-46/M356R); assay: Two-electrode voltage clamp in Xenopus oocytes: 2R motif channel
T5 construct: expressed in transfected cells; host or cells: Xenopus laevis oocytes (RNA injection)
T5 sequence (P08510 other isoform, or with tags, fused parts or gaps DEL6-46/M356R/A359R): as the sequence (P08510 other isoform, or with tags, fused parts or gaps DEL6-46/F280I/R362Q/R365Q/W454A) above, with I239F, M315R, A318R, Q321R, Q324R, A413W counted along it
Excerpt: as §4, §5, §6, §7

[6] = molecular target: T6, Shaker KV channel R362Q/W454A/F416A (Drosophila melanogaster, UniProt P08510, DEL6-46/F416A/R362Q/W454A); assay: Two-electrode voltage clamp in Xenopus oocytes: R362Q/W454A/F416A; conditions: 100 μM
T6 construct: expressed in transfected cells; host or cells: Xenopus laevis oocytes (RNA injection)
T6 sequence (P08510 other isoform, or with tags, fused parts or gaps DEL6-46/R362Q/F416A/W454A): as the sequence (P08510 other isoform, or with tags, fused parts or gaps DEL6-46/F280I/R362Q/R365Q/W454A) above, with I239F, Q324R, F375A counted along it
Excerpt: as §8, §2
as §7, with “The conductance was fitted with a Boltzmann equation (GraphPad Prism 5; GraphPad Software, Inc.) GK(V)=GMAX/{1+exp[(V½−V)/s]}, (2) where GMAX is the amplitude (maximal conductance) of the curve, V is the absolute membrane voltage, V1/2 is the midpoint, and s is the slope.” left out

[7] = molecular target: T7, Shaker KV channel R362Q/R365Q/W454A (Drosophila melanogaster, UniProt P08510, DEL6-46/R362Q/R365Q/W454A); assay: Two-electrode voltage clamp in Xenopus oocytes: R362Q/R365Q/W454A; conditions: 100 μM, pH 9.0, R362Q/R365Q/W454A
T7 construct: expressed in transfected cells; host or cells: Xenopus laevis oocytes (RNA injection)
T7 sequence (P08510 with tags, fused parts or gaps DEL6-46/R362Q/R365Q/W454A): as the sequence (P08510 other isoform, or with tags, fused parts or gaps DEL6-46/F280I/R362Q/R365Q/W454A) above, with I239F counted along it
Excerpt: as §1, §2, §3

[8] = molecular target: T8, Shaker KV channel R362Q/W454A (Drosophila melanogaster, UniProt P08510, DEL6-46/R362Q/W454A); assay: Two-electrode voltage clamp in Xenopus oocytes: R362Q/W454A; conditions: 100 μM, pH 9.0, R362Q/W454A
T8 construct: expressed in transfected cells; host or cells: Xenopus laevis oocytes (RNA injection)
T8 sequence (P08510 with tags, fused parts or gaps DEL6-46/R362Q/W454A): as the sequence (P08510 other isoform, or with tags, fused parts or gaps DEL6-46/F280I/R362Q/R365Q/W454A) above, with I239F, Q324R counted along it
Excerpt: as §1, §2, §3

[9] = 100 μM, pH 9.0, M356R/A359R (=2R)

## C[C@@]1(C(=O)O)CCC[C@]2(C)c3cc(Cl)c(Cl)c(Cl)c3CC[C@@H]12 [Wu50]
[1]
  GMAX (rel.): 0.05 rel.
[2]
  GMAX (rel.): 1.50 rel.
  ΔVG(V) (G(V) shift): −56.6 ± 5.8 mV and -56.6 mV
[3]; 100 μM, pH 9.0, WT
  ΔVG(V) (G(V) shift): −25.5 ± 1.4 mV and -25.5 mV
[3]; 100 μM, pH 9.0, WT, GMAX (compound)/GMAX (control)
  GMAX (rel.): 1.36 rel.
[3]; WT, pH 9.0, concentration-response (Eq. 3), read-out: EC50 of the G(V) shift (apparent affinity)
  EC50: 29.1 ± 3.5 µM
[4]
  GMAX (rel.): 1.25 rel.
  ΔVG(V) (G(V) shift): −49.6 ± 1.2 mV and -49.6 mV
[5]; 100 µM, pH 9.0, 2R motif
  G(V) shift, representative recording (Fig. 1 D): −40.7 mV
[5]; [9]
  GMAX (rel.): 1.58 rel.
  ΔVG(V) (G(V) shift): −40.0 ± 2.7 mV and -40.0 mV
[5]; 2R motif versus WT, Wu50 pH 9.0, Wu161 and Wu181 pH 7.4
  Increase of the maximum G(V) shift by the 2R motif: 57%
[5]; 2R motif, pH 9.0, concentration-response (Eq. 3)
  ΔVMAX (maximum G(V) shift): −56.5 ± 2.6 mV
[5]; 2R motif, pH 9.0, concentration-response (Eq. 3), read-out: EC50 of the G(V) shift (apparent affinity)
  EC50: 30 ± 5 µM
[5]; magnitude depending on the background mutations, 100 μM, pH 9.0
  Increase of the G(V) shift by the 2R motif, in the negative direction: 4–32 mV
[6]; pH 9.0, R362Q/W454A/F416A
  GMAX (rel.): 0.17 rel.
[6]; R362Q/W454A/F416A, pH 9.0
  Reduction of GMAX: 83%
[7]
  GMAX (rel.): 0.57 rel.
  ΔVG(V) (G(V) shift): −24.7 ± 3.0 mV and -24.7 mV
[8]
  GMAX (rel.): 1.28 rel.
  ΔVG(V) (G(V) shift): −41.0 ± 4.4 mV and -41.0 mV
